# Reference: US3931217A, “2,3-Dihydro-5-alkoxy-5-phenyl-5H-imidazo[2,1-a]isoindoles” (Hoffmann-La Roche Inc., priority 1974, dated 1976)
# Key:
# [1] = acute toxicity (LD50) in mice; conditions: mouse, in vivo
# dogs = experiment: blood pressure in dogs; type: in vivo; conditions: 4 mg/kg i.v.
# Procedure: (§1) In addition to their use as psychostimulants, the compounds of formulas I and II-d are also useful as analgesic agents. […] For example, 2-(2-benzoylphenyl)-2-imidazoline in dogs at 4 mg/kg i.v. produced an increase in blood pressure of 10 mm. Hg after 2 minutes followed by gradual increase to 25 mm. Hg.
# animals = experiment: analgesic properties in standard pharmacological tests in animals; type: in vivo; conditions: result in words
# Procedure: as §1
# mice = experiment: direct-acting stimulant / psychostimulant effect in animals such as mice; type: in vivo; conditions: similarly tested; result in words
# Procedure: As has been indicated hereinabove the novel end products of this invention, i.e., the compounds of the formula I and their pharmaceutically acceptable acid addition salts and the compounds of formula II-d and their pharmaceutically acceptable acid addition salts, are useful as psychostimulants. When administered, for example, orally, to animals such as mice they produce a direct-acting stimulant effect of long duration in single doses in amounts ranging from 0.03 mg/kg to 50 mg/kg. […] Exp. Path. and Pharm., Vol. 140, page 237). The compounds of this invention have psychostimulant effects qualitatively similar in many respects to those of imipramine and amphetamine which are well known for their therapeutic uses and properties.
# LD50 of Example 21 = conditions: in vivo, iv; species not given
smiles,measurement,setting,value
"O=C(c1ccccc1)c1ccccc1C1=NCCN1 [Example 10, 2-(2-benzoylphenyl)-2-imidazoline]",LD50,[1]; ip,77 mg/kg
same,LD50,[1]; iv,37 mg/kg
same,LD50,[1]; po,200 mg/kg
same,LD50,[1]; sc,130 mg/kg
same,increase in blood pressure,dogs; after 2 minutes,10 mm. Hg
same,gradual increase in blood pressure,dogs; following the 2-minute value,25 mm. Hg
same,analgesic properties compared with phenylbutazone,animals,can be likened to the analgesic properties of phenylbutazone
"O=C(c1ccc(Cl)cc1)c1ccccc1C1=NCCN1 [Example 15, 2-[2'-(4-chlorobenzoyl)phenyl]-2-imidazoline]",test result compared with 2-(2-benzoylphenyl)-2-imidazoline,mice,qualitatively similar to 2-(2-benzoylphenyl)-2-imidazoline
"COC1(c2ccccc2)c2ccccc2C2=NCCN21 (centres unmarked) [2,3-dihydro-5-methoxy-5-phenyl-5H-imidazo[2,1-a]isoindole]",test result compared with 2-(2-benzoylphenyl)-2-imidazoline,mice,qualitatively similar to 2-(2-benzoylphenyl)-2-imidazoline
"COc1ccc(C(=O)c2ccccc2C2=NCCN2)cc1 [Example 16, 2-[2'-(4-anisoyl)phenyl]-2-imidazoline]",test result compared with 2-(2-benzoylphenyl)-2-imidazoline,mice,qualitatively similar to 2-(2-benzoylphenyl)-2-imidazoline
"OC1(c2ccccc2)c2ccccc2C2=NCCCCN21 (centres unmarked) [Example 21, 2,3,4,5-tetrahydro-7-hydroxy-7-phenyl-7H-diazepino[2,1-a]isoindole]",LD50,LD50 of Example 21,40 mg/kg
